Source: patent US20130183239A1, “ISOTOPIC CARBON CHOLINE ANALOGS” (IMPERIAL COLLEGE, priority 2010, published 2013)

What was measured:
[1] = mouse, in vivo
Method: Metabolite analysis of tissues including liver, kidney and tumor by HPLC was also accomplished. […] Choline and its metabolites lack any UV chromophore to permit presentation of chromatograms of the cold unlabelled compound simultaneously with the radioactivity chromatograms.
Liver, kidney, and tumor samples were obtained at 30 min. All samples were snap-frozen in liquid nitrogen. For analysis, samples were thawed and kept at 4° C. immediately before use. To ˜0.2 mL plasma was added ice-cold methanol (1.5 mL). The mixture was then centrifuged (3 min, 15,493×g, 4jC). The supernatant was evaporated to dryness using a rotary evaporator (Heidoloph Instruments) at a bath temperature of 40° C. The residue was suspended in mobile phase (1.1 mL), clarified (0.2 Am filter), and analyzed by HPLC. Liver, kidney, and tumor samples were homogenized in ice-cold methanol (1.5 mL) using an IKA Ultra-Turrax T-25 homogenizer and subsequently treated as per plasma samples (above). All samples were analyzed by radio-HPLC on an Agilent 1100 series HPLC system (Agilent Technologies) equipped with a γ-RAM Model 3 γ-detector (IN/US Systems) and Laura 3 software (Lablogic). The stationary phase comprised a Waters μBondapak C18 reverse-phase column (300×7.8 mm) (Waters, Milford, Mass., USA). Samples were analyzed using a mobile phase comprising solvent A (acetonitrile/water/ethanol/acetic acid/1.0 mol/L ammonium acetate/0.1 mol/L sodium phosphate; 800/127/68/2/3/10) and solvent B (acetonitrile/water/ethanol/acetic acid/1.0 mol/L ammonium acetate/0.1 mol/L sodiumphosphate; 400/400/68/44/88/10) with a gradient of 0% B for 6 min, then 0→100% B in 10 min, 100% B for 0.5 min, 100→0% B in 1.5 min then 0% B for 2 min, delivered at a flow rate of 3 mL/min.

HCT116 tumors = tested on: HCT116 tumors; set-up: AUC: unit not given beside the values
Method: (§1) Dynamic ^11C-choline, ^11C-D4-choline and ^18F-D4-choline imaging scans were carried out on a dedicated small animal PET scanner (Siemens Inveon PET module, Siemens Medical Solutions USA, Inc., Malvem, Pa., USA) following a bolus i.v. injection in tumor-bearing mice of either ˜3.7 MBq for ^18F studies, or ˜18.5 MBq for ^11C. Dynamic scans were acquired in list mode format over 60 min. The acquired data were then sorted into 0.5 mm sinogram bins and 19 time frames for image reconstruction (4×15 s, 4×60 s, and 11×300 s), which was done by filtered back projection. For input function analysis, data were sorted into 25 time frames for image reconstruction (8×5 s, 1×20 s, 4×40 s, 1×80 s, and 11×300 s). The Siemens Inveon Research Workplace software was used for visualization of radiotracer uptake in the tumor; 30 to 60 min cumulative images of the dynamic data were employed to define 3-dimensional (3D) regions of interest (ROIs). Arterial input function was estimated as follows: a single voxel 3D ROI was manually drawn in the center of the heart cavity using 2 to 5 min cumulative images. Care was taken to minimize ROI overlap with the myocardium. The count densities were averaged for all ROIs at each time point to obtain a time versus radioactivity curve (TAC). Tumor TACs were normalized to injected dose, measured by a VDC-304 dose calibrator (Veenstra Instruments, Joure, The Netherlands), and expressed as percentage injected dose per mL tissue. The area under the TAC, calculated as the integral of % ID/mL from 0-60 min, and the normalized uptake of radiotracer at 60 min (% ID/mL60) were also used for comparisons.
(§2) A 2-tissue irreversible compartmental model was employed to fit the TACs, as has been previously established for ^11C-choline (Kenny L M, Contractor K B, Hinz R, et al. Reproducibility of [11C]choline-positron emission tomography and effect of trastuzumab. Clin Cancer Res. Aug. 15 2010; 16(16):4236-4245; and Sutinen E, Nurmi M, Roivainen A, et al. Kinetics of [(11)C]choline uptake in prostate cancer: a PET study. Eur J Nucl Med Mol. Imaging. March 2004; 31(3):317-324). An estimate of the whole blood TAC (wbTAC(t)) was derived from the PET image itself, as described above. […] Therefore it was fitted with a sum of 3 exponentials from the peak on and the fitted function was used as input function in the kinetic modeling (after metabolite correction, see below). […] The pf values were fitted to a sum of two exponentials with the constraint pf(t=0)=1 to obtain the function pf(t). The parent whole blood TAC wbTACPAR(t) was then computed by multiplying wbTAC(t) and pf(t) and used as input function to estimate the parameters K1 (mL/cm^3/min), k2 (1/min), k3 (1/min) and Vb (unitless). The steady state net irreversible uptake rate constant Ki (mL/cm^3/min) was calculated from the estimated microparameters as K1k3/(k2+k3).

[2] = tested on: malignant melanoma A375 tumors; set-up: AUC: unit not given beside the values
Method: as §1, §2

[3] = HCT116 tumors, two-tissue irreversible model, n=3
[4] = HCT116 tumors, 2-tissue irreversible model
[5] = A375 tumors, 2-tissue irreversible model

For [2H]C([2H])(O)C([2H])([2H])[N+](C)(C)C[18F] [[^18F]D4-FCH, [^18F]fluoromethyl-[1,2-^2H4]-choline], the “kidney radioactivity as phosphocholine” value [1] was 60.6±3.7%, the “kidney radioactivity in the form of betaine” value [1] was 20.6±6.2% and the “unknown metabolite (possibly the aldehyde intermediate) in liver” value [1] was 7.4±2.3%. The “unknown metabolite in kidney” value [1] was 8.8±0.2%, the “form of radioactivity in tumors” value ([1]; iv) was “mainly in the form of phosphocholine” and the “tumor tracer kinetics between 30 and 60 min” value (HCT116 tumors; HCT116 tumors, dynamic PET) was “Slow wash-out of activity”. The “decrease in Ki compared to 11C-D4-choline” value (HCT116 tumors; [3]) was 49.2%, the “decrease in k3 compared to 11C-D4-choline” value (HCT116 tumors; [3]) was 75.2% and the “K1′” value (HCT116 tumors; [4]) was 0.142 ± 0.027. For the same molecule, the Ki (HCT116 tumors; [4]) was 0.008 ± 0.001 mL/cm^3/min, the k3 (HCT116 tumors; [4]) was 0.039 ± 0.003 min⁻¹ and the AUC (HCT116 tumors; mouse, in vivo) was 114.5 ± 7.0. For the same molecule, the NUV60 (HCT116 tumors; mouse, in vivo) was 1.81 ± 0.11 % ID/mL, the “tumor radiotracer uptake by PET” value (HCT116 tumors; mouse, in vivo) was “no higher” and the “K1′” value [2, 5] was 0.111 ± 0.021. It also gave a Ki [2, 5] of 0.006 ± 0.002 mL/cm^3/min, a k3 [2, 5] of 0.030 ± 0.008 min⁻¹ and an AUC ([2]; mouse, in vivo) of 107.3 ± 7.7. For the same molecule, the NUV60 ([2]; mouse, in vivo) was 1.71 ± 0.14 % ID/mL.
